The source of these data is patent US10994013B2, “Solid dosage form containing arabinogalactan” (TEMPLE UNIVERSITY—OF THE COMMONWEALTH SYSTEM OF HIGHER …, priority 2013, dated 2021).

Converted amounts (≈) assume the structure as drawn. Where two headings read alike, the source gives them in different places. Where only a bound is given, the exact number is not on record here.

A short description of data set [1]: Physical stability: XRPD RDC at accelerated storage conditions. The class given is physicochemical. As to conditions: IBU as reference, 2θ of 22.4°. The procedure:
The RDC was measured by XRPD as described above for the dosage forms listed in Table 22 at various accelerated storage conditions. Batches of IBU AGF SDM, IBU HPMCK3 SDM, IBU HPMCK3 MSD and IBU AGF MSD at 10% drug load and 20% drug load were prepared as described above. In addition, 10% IBU AGF MSD and 10% IBU AGF SDM batches were prepared with 0.02% butylated hydroxytoluene (BHT), an antioxidant. […] 60% relative humidity and 40° C. […] These findings were confirmed by DSC (not shown).

Data set [2] is described as follows: In vitro drug dissolution, USP basket method, 0.1 N HCl. The class given is physicochemical. The following applies: for % drug release at 15 minutes / % drug release at 30 minutes / % drug release at 120 minutes: 0.1N HCl, AGF formulations. The procedure:
(§1) The in vitro drug dissolution rates of the dosage forms listed in Table 4 below were determined by the USP basked method (270 mesh, 53 micron pore size). The Van Kel VK7010 dissolution system was employed. 900 ml of 0.1 N HCl at 37° C. was used as a dissolution medium. The media was selected to mimic gastric pH and to allow greater discrimination of ibuprofen dissolution profiles due to formulation and processing effects. The dissolution experiment was run at 100 rpm. Each sample contained a dosage form equivalent to 25 mg of ibuprofen to maintain the non sink conditions, i.e. to employ a volume of medium (900 ml in this case) that is less than the volume of medium required for sink conditions, which is three times that required in order to form a saturated solution of drug. In vitro dissolution of 25 mg of neat ibuprofen was used as a control. At appropriate time intervals, samples were collected and replaced by fresh media. Each sample was filtered and the drug was analyzed using Agilent/HP 8453 UV-Vis spectrophotometer (λmx=222 nm). The experiment was conducted in triplicate. T50 (time for 50% drug release), T60 (time for 60% drug release), and T80 (time for 80% drug release) was recorded directly from the dissolution profiles.
as §1, with “PMs and MSDs made with ibuprofen and AGF or HPMCK3” for “the dosage forms listed in Table 4 below”, “contained an MSD or” for “contained”, “PM” for “dosage form”
In vitro basket dissolution was carried out on SDM and PM formulations as described in Example 3. Each sample of ITRA AGF SDM contained an amount equivalent to 25 mg of ITRA to maintain the non sink conditions. ITRA was analyzed using an Agilent/HP 8453 UV-Vis spectrophotometer (λmax=257 nm).
UV analysis was conducted at λmax=260 nm.
The degree of similarity between the dissolution profiles was calculated using the following equation from Moore and Flanner, 1996, Pharm. Tech. 20:64-74, and using data points up to 85% drug release (Shah et al., 1998, Pharm. Res. 15:889-896):
Two dissolution profiles would be deemed similar if the average difference between the reference and the test assay at the same time point were less than 10%. The similarity factor value would then not be less than 50%.

The nature of data set [3]: Equilibrium solubility of drug in polymer solution in 0.1N HCl. The class given is physicochemical. The following applies: for solubility thermodynamic at 72 h: 0.1 N HCl without polymer, simulated gastric fluid, thermodynamic from solid, 0.1 N HCl, 37 C, no polymer, read-out: saturation / equilibrium solubility of neat drug; for fold increase in drug solubility in the presence of AGF polymer: AGF dissolved in 0.1N HCl, 0% to 3%, ITRA and KETO at 3%. As for the experimental part:
Anal. Chem. Instrum. […] An excess of IBU (200 mg) was added to 10 ml of polymer solution in 0.1N HCl in a stoppered glass vial and was bath sonicated for 30 minutes. The polymer concentrations ranged from 0% to 3% (0 mg/ml to 30 mg/ml). The vials were kept in a shaking water bath at 37 C and at 50 rpm for 72 hours to obtain equilibrium. After 72 hours the shaker was turned off and the samples were kept at a standstill at 37 C for 3 hours to settle the undissolved drug at the bottom of the glass vials. The supernatant was filtered using a 0.45 micron filter.
For an equilibrium study of itraconazole, 50 mg itraconazole (ITRA) was added to 20 ml of AGF polymer solution in 0.1 N HCl.

For data set [4] the following is noted: cited from earlier work.
A short description of data set [5]: Relative degree of crystallinity (RDC) by XRPD. The class given is physicochemical. As to conditions: at 10% DL SD with AGF. As for the experimental part:
The term “relative degree of crystallinity (RDC),” as used herein is the degree of crystallinity of the therapeutic agent in the dosage form relative to the degree of crystallinity of the neat therapeutic agent. RDC is calculated using the following formula: RDC=I sample/I therapeutic agent I sample: peak height of the formulation under investigation at a chosen angle (2θ) I therapeutic agent: peak height of the neat therapeutic agent at the same angle that was chosen for the sample (2θ)
Powder X-ray diffraction of the ibuprofen-arabinogalactan MSDs was carried out to determine the crystallinity of the ibuprofen. Powder samples ([…]) were placed on a sample holder and the diffractograms were collected using a Bruker D8 diffractometer (Madison, Wis.) with Cu Kα radiation. The voltage of 40 kV was used and the current was 40 mA. The samples were scanned from 2 θ to 40 θ at a rate of 2 θ/minute. The data analysis was done using Bruker-AXs EVA software (version 15.0).
XRPD were collected using Rigaku D-Max B X-ray Diffractometer (Tokyo, Japan). The powder sample size of 0.5 gram was used and samples were run at 35 kV at 15 mA and […]. JADE software (version 9) was used to process, acquire and analyze the data.

`CC(C)Cc1ccc(C(C)C(=O)O)cc1` (stereo not shown) [IBU, Ibuprofen]: in data set [1], the “XRPD RDC, 25° C. and 0% relative humidity (6 Months)” value was found to be 1; the “XRPD RDC, 25° C. and 60% relative humidity (6 Months)” value was found to be 1; the “XRPD RDC, 40° C. and 0% relative humidity (3 Months)” value worked out at 1; the “XRPD RDC, 40° C. and 75% relative humidity (3 Months)” value came out at 1. In addition, the “XRPD RDC, INITIAL” value in data set [1] is on record as 1. Also, in data set [2], the “% drug release at 15 minutes” value came out at 8%, the “% drug release at 30 minutes” value amounted to 27% and the “% drug release at 120 minutes” value stood at 41%. Moreover, the “T60 (time for 60% drug release)” value in data set [2] (900 ml 0.1 N HCl, 37° C., 100 rpm, 25 mg ibuprofen, non sink) was 300 min. Also, in data set [3], the solubility thermodynamic at 72 h is 37 µg/mL (≈ 179 µM) and the “fold increase in drug solubility in the presence of AGF polymer” value is on record as 7.3 fold. Also, the “IBU solubility with increasing HPMCK3 concentration” value in data set [3] (control polymer HPMCK3 in 0.1N HCl) is on record as “did not enhance the solubility”.
As to `CC(=O)N1CCN(c2ccc(OC[C@H]3CO[C@](Cn4ccnc4)(c4ccc(Cl)cc4Cl)O3)cc2)CC1` (racemic) [KETOC, ketoconazole], the Solubility in data set [4] was 10 µg/mL (≈ 18.8 µM).
Regarding `CC(C)NCC(O)COc1cccc2ccccc12` (stereo not shown) [PROPFB, propranolol free base], the Solubility in data set [4] is 120 µg/mL (≈ 463 µM).
As to `CCCNC(=O)NS(=O)(=O)c1ccc(Cl)cc1` [CHLOPR, chlorpropamide], the Solubility in data set [4] (water at pH 6) is 2500 µg/mL (≈ 9030 µM).
Take `CC(C(=O)O)c1cccc(Oc2ccccc2)c1` (stereo not shown) [Fenoprofen, fenoprofen]: in data set [5], the RDC value was 0.125. In data set [4] (for its calcium salt), the Solubility was <<<<<<2500 μg/ml.
Regarding `C[C@@H](C(=O)O)c1ccc(-c2ccccc2)c(F)c1` [FLURBI, flurbiprofen], the Solubility in data set [4] is 482 µg/mL (≈ 1970 µM).
With `CC(C(=O)O)c1cccc(C(=O)c2ccccc2)c1` (stereo not shown) [KETO, Ketoprofen], in data set [2], the “% drug release at 15 minutes” value was found to be 1.8%, the “% drug release at 30 minutes” value is on record as 3.3% and the “% drug release at 120 minutes” value amounted to 8.4%.
Take `COCCOC(=O)C1=C(C)NC(C)=C(C(=O)OC(C)C)C1c1cccc([N+](=O)[O-])c1` (stereo not shown) [NIMO, nimodipine]: the Solubility in data set [4] was 2299 µg/mL (≈ 5490 µM).
As for `CCC(C)n1ncn(-c2ccc(N3CCN(c4ccc(OCC5COC(Cn6cncn6)(c6ccc(Cl)cc6Cl)O5)cc4)CC3)cc2)c1=O` (stereo not shown) [ITRA, Itraconazole], in data set [3], the solubility thermodynamic at 72 h was 5720 µg/mL (≈ 8110 µM) and the “fold increase in drug solubility in the presence of AGF polymer” value was 16 fold.
As for `Clc1ccc(C(Cn2ccnc2)OCc2ccsc2Cl)c(Cl)c1` (stereo not shown) [TIOCO, tioconazole], the Solubility in data set [4] is around 2 µg/mL (≈ 5.16 µM).
